target: PDGFR (Homo sapiens, UniProt P09619); experiment: PDGF-stimulated receptor phosphorylation in U1242 cells, ELISA; format: cell-based; set-up: U1242 (PDGF-β receptor); host or cells: U1242 MG glioma cells; conditions: not given
Method: For ELISA assays, cells were grown to 80-90% confluency in growth medium and seeded in 96-well tissue culture plates in 0.5% serum at 25,000 to 30,000 cells per well. After overnight incubation in 0.5% serum-containingmedium, cells were changed to serum-free medium and treated with test compound for 2 hr in a 5% CO2, 37° C. incubator. Cells were then stimulated with ligand for 5-10 min followed by lysis with HNTG (20 mM Hepes, 150 mM NaCl, 10% glycerol, 5 mM EDTA, 5 mM Na3 VO4 0.2% Triton X-100, and 2 mM NaPyr). […] Lysates were incubated with shaking for 1 hr at room temperature. The plates were washed with TBST four times and then incubated with polyclonol anti-phosphotyrosine antibody at room temperature for 30 min. Excess anti-phosphotyrosine antibody was removed by rinsing the plate with TBST four times. Goat anti-rabbit IgG antibody was added to the ELISA plate for 30 min at room temperature followed by rinsing with TBST four more times.
U1242 MG cells were plated in 96-well plates at a concentration of 5×10^4 cells/well in cultured media containing 0.5% FBS. The cells were incubated for 24 hours. The cells were then treated with a particular compound for 2 hours followed by the addition of 100 ng/ml PDGF-BB and incubation for 10 minutes.
Cells were lysed in 0.2 M Hepes, 0.15 M NaCl, 10% V/V glycerol, 0.04% Triton X-100, 5 mM EDTA, 5 MM Na^+ vanadate and […] Na^+ pyrophosphate. Cell lysates were then added to an ELISA plate coated with an anti-PDGF receptor antibody (Genzyme). ELISA plates were coated at […] of antibody/well in […] of PBS for 18 hours at 4° C. prior to the addition of the lysate.
The lysate was incubated in the coated plates for 1 hour and then washed four times in TBST (35 mM Tris-HCl pH 7.0, 0.15 M NaCl, 0.1% Triton X-100). Anti-phosphotyrosine antibody ([…] in PBS) was added and the mixture was incubated for 30 minutes at room temperature. The wells were then washed four times in TBST, a secondary antibody conjugated to POD (TAGO) was added to each well, and the treated wells were incubated for 30 minutes at room temperature. The wells were then washed four times in TBST, ABTS/H2 O2 solution was added to each well and the wells were incubated for two minutes. Absorbance was then measured at 410 nm.

PDGFR, sequence (P09619 33-1106): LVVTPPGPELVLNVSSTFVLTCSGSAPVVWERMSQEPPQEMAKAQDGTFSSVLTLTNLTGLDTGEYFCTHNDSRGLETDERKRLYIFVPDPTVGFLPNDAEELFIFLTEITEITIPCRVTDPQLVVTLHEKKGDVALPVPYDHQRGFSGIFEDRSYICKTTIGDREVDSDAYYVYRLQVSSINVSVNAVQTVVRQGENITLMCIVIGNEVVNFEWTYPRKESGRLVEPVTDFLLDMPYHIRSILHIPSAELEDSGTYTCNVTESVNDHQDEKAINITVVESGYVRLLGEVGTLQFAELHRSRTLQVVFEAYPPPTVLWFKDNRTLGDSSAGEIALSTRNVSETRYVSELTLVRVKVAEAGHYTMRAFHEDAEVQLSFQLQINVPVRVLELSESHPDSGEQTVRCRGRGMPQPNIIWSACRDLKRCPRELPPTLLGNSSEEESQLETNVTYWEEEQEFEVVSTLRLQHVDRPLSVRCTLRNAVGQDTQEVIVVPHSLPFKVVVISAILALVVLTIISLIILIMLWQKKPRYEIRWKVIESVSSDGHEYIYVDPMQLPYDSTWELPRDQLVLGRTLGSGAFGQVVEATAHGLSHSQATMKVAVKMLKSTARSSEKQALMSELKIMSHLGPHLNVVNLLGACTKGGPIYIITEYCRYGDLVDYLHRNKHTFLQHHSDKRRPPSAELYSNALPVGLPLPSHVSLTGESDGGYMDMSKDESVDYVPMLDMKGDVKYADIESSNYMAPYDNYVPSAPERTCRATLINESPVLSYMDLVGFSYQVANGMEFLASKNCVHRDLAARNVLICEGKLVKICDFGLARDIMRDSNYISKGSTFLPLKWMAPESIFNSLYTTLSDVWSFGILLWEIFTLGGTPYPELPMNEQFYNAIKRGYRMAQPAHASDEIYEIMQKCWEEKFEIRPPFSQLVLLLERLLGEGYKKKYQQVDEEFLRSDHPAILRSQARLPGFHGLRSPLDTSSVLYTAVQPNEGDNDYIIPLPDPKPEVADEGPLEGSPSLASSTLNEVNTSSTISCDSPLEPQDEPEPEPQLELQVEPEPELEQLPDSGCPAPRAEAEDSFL

SMILES	IC50 [µM]
N#CC(=Cc1c[nH]c2ccccc12)C(N)=C(C#N)C#N [Compound D12]	60

same assay, conditions: 100 ng/ml PDGF-BB; read-out: ELISA P-TYR U1242 IC50

SMILES	IC50 [µM]
O=C(NN=Cc1ccccc1O)C(=O)Nc1cccc(O)c1 [Compound E12]	180
N#CC(C(=O)Nc1ccc(C(F)(F)F)cc1)=C(O)C1CCCCC1 [Compound B13, 2-Propenamide, 2-cyano-3-hydroxy-3-cyclohexyl-N-[(4-trifluoromethyl)phenyl]]	180
CC1(C)C(C(O)=C(C#N)C(=O)Nc2ccc(C(F)(F)F)cc2)C1(C)C [Compound B14, 2-cyano-3-hydroxy-3-(2,2,3,3-tetramethylcyclopropyl)-propanol-4-(trifluoromethyl)anilide]	180
N#CC(C(=O)Nc1ccc(C(F)(F)F)cc1)=C(O)Cc1ccccc1 [Compound B17, 2-Butenamide, 2-cyano-3-hydroxy-4-phenyl-N-[(4-trifluoromethyl)phenyl]]	125
COc1cc2nc(-c3ccccc3)cnc2cc1O [Compound G17]	100
c1csc(-c2cnc3ccccc3n2)c1 [Compound G15]	100
COc1ccccc1NC(=O)C(=O)NN=Cc1ccc(O)c(O)c1 [Compound E13]	> 100
CC(C)CC(O)=C(C#N)C(=O)Nc1ccc(C(F)(F)F)cc1 [Compound B18, 2-Hexeneamide, 2-cyano-3-hydroxy-5-methyl-N-[(4-trifluoromethyl)phenyl]]	160
Oc1cc2ncc(-c3ccccc3)nc2cc1O [Compound G20]	> 100
N#CCCn1cc(C=C(C#N)C(=O)c2ccc(O)c(O)c2)c2ccccc21 [Compound D17]	> 100
O=C(NN=Cc1ccc(O)cc1)C(=O)Nc1cccc([N+](=O)[O-])c1 [Compound E16]	125
N#CC(C(=O)Nc1ccc(C(F)(F)F)cc1)=C(O)C(c1ccccc1)c1ccccc1 [Compound B19, 2-Butenamide, 2-cyano-3-hydroxy-4,4-diphenyl-N-[(4-trifluoromethyl)phenyl]]	100
N#CC(C(=O)Nc1ccc(C(F)(F)F)cc1)=C(O)c1c(F)c(F)c(F)c(F)c1F [Compound B15, 2-Propenamide, 2-cyano-3-hydroxy-3-(pentafluorophenyl)-N-[(4-trifluoromethyl)phenyl]]	120
CC(O)=C(C#N)C(=O)Nc1ccc([N+](=O)[O-])cc1 [Compound B10]	180

Further lines, results first:

IC50 [µM]	SMILES
45	CN(C)c1ccc(NC(=O)C(=O)NN=Cc2ccc(O)c(O)c2)cc1 [Compound E10]
90	CC(NC(=O)C(C#N)=Cc1ccc2[nH]ccc2c1)c1ccccc1 (single isomer, unassigned) [Compound I10]
50	CN(C)CCCn1cc(C=C(C#N)C(=O)c2ccc(O)c(O)c2)c2ccccc21 [Compound D16]
100	N#CC(C(=O)Nc1ccc(C(F)(F)F)cc1)=C(O)c1ccc(F)cc1 [Compound B12, 2-Propenamide, 2-cyano-3-hydroxy-3-(4-fluorophenyl)-N-[(4-trifluoromethyl)phenyl]]
100	O=c1c2ccccc2nc2n1CCOC2=Cc1ccc(O)c(O)c1 [Compound F11]
90	O=C(NN=Cc1ccc(O)c(O)c1)C(=O)Nc1cccc(O)c1 [Compound E11]
90	Cc1ccc2ncc(-c3ccccc3)nc2c1 [Compound G19]
70	O=c1c2ccccc2nc2n1CCOC2=Cc1cccc(O)c1 [Compound F12]
70	N#CC(=Cc1ccc(O)c(O)c1)c1[nH]nc(N)c1C#N [Compound C11]

system: C6 cells; experiment: C6 SRB growth assay; format: cell-based, rat; conditions: Rattus norvegicus, C6; at 25 μM

SMILES	inhibition at 25 µM [%]
Cc1noc(C)c1C(=O)NCc1ccc(C(F)(F)F)cc1 [Compound P22, N-4-trifluoromethlybenzy 3,5-dimethylisoxazole-4-carboxamide]	~10

same assay, conditions: Rattus norvegicus, C6; read-out: C6 SRB IC50

SMILES	IC50 [µM]
N#CC(C(=O)N1CCOCC1)C(=S)Nc1ccccc1Cl (centres unmarked) [Compound P19, N-2-chlorophenyl (2-cyano-2-N-morpholinocarbonyl) thioacetamide]	> 50
Cc1noc(C)c1C(=O)NCc1ccc(C(F)(F)F)cc1 [Compound P22, N-4-trifluoromethlybenzy 3,5-dimethylisoxazole-4-carboxamide]	> 25
Cc1oncc1C(=O)NCc1ccc(C(F)(F)F)cc1 [Compound P23]	18
CC(O)=C(C#N)C(=O)NCc1ccc(C(F)(F)F)cc1 [Compound P24, 1-trifluorometnlybenzylaminocarbonly-1-cyano-2-hydroxy propene]	14

— US6331555A, “Treatment of platelet derived growth factor related disorders such as cancers” (priority 1999, dated 2001)
